The values that follow come from patent publication US20250235533A1, “INJECTABLE PROLONGED-RELEASE HYDROGEL FORMULATIONS OF TOLL-LIKE RECEPTOR AGONISTS FOR INTRATUMORAL INJECTION TO INCREASE IMMUNOTHERAPY RESPONSE” (priority 2024, published 2025).

A short description of one series: In vitro release studies. Format: physicochemical. The protocol:
Drug release kinetics of imiquimod from various […] formulations were studied by placing aliquots of drug-loaded hydrogel into 50 mL conical tubes at 100 rpm at 37° C., releasing drug into DPBS. 50 μL of […] were added to the bottom of 50 mL conical Falcon tubes or in a dialysis tubing (D-tube Dialyzer Maxi, MWCO 3.5 kDa) at room temperature and brought to gel state by incubating at 37° C. for 30 min while DPBS as receiving fluid was preheated at the same temperature. After […] solidified, 50 mL DPBS (pH 7.4), Lactated […]), or Acetate Buffer (pH 5, 0.03 m Acetic acid, and 0.07 m Sodium Acetate in DI water) were added slowly to the conical tubes. These containers were then incubated at 37° C. under shaking at 100 rpm. 400 μL samples were taken from the receiving fluid with a 1 mL syringe through 0.2 μm filters (PALL super membrane low protein binding non-pyrogenic) to avoid accidental removal of gel. Concentration of imiquimod in the samples was assessed eluting the samples on an Agilent 1100 high-performance liquid chromatography (HPLC) with UV detector at 242 nm over an Eclipse XD8-C18 column (150×4.6 mm, 3.5 μm pore size) with an acetonitrile/water gradient from 5/95 to 95/5 over 6 min at 1 mL mi-1 n. […] Concentrations were calculated from UV signals using a calibration curve of known concentration imiquimod standards in DMSO/Acetonitrile.

The nature of series [1]: Solubility / encapsulation of immunoadjuvant in PLGA-PEG-PLGA micelles. Format: physicochemical. The protocol:
Typically, 1 g of PLGA-PEG-PLGA was dissolved in 4 ml 0.9% saline solution (Baxter, Deerfield, IL) to obtain a 25% weight/volume (w/v) concentration at 4° C. over 2 days and vortexed/stirred daily. Importantly, the normal saline cannot contain the preservative phenol, commonly found in preservative containing commercial saline solutions. After a homogeneous hydrogel solution was observed by stirring with a spatula, imiquimod was added at 24 mg to the batch, the dispersion was vortexed and allowed to dissolve at room temperature over 2 days. Some of the gels received Iopamidol as contrast agent at 100 mg mL^−1, which was left to disperse or dissolve over 1 day. The resulting Imigel or Imigel+Iopamidol was stored at room temperature, shielded from evaporation, and used within 1 week from full dissolution to prevent hydrolysis. (FIGS. 3A-3E).

The test system of another series is CT-26 tumors. Description: Dual tumor model survival study, CT-26. Format: in vivo, balb/c mice. Particulars: CT-26 model. Here is the method: Per experimental arm 10-15 Balb c^−1 mice were injected with approximately 10^6 cells of CT-26 or EMT-6 cells, day 0 (FIG. 6) in bilateral flanks. Immunotherapy (anti-PD-1 (3.9 mg mL^−1), anti-CTLA-4 (2.2 mg mL^−1) co-immunotherapy was given intraperitoneally (Sigma-Aldrich) every 3 days from day 3-12. Mice with primary and contralateral tumors of at least 6 mm were chosen to be randomized to various treatment arms evaluating CPI with and without cryoablation, imiquimod drug-only injection, PLGA-PEG-PLGA only injection, or imigel (3:1) injection. The imigel, gel alone, or serial imiquimod suspensions were injected as 50 μL injections using a 26-gauge needle. For cryoablation, parameters included a 30 s freeze, followed by 2 min thaw, followed by a 30 s freeze with goal of approximately 50% tumoral freezing. When using cryoablation, the drug formulations were injected 5 min post final freeze, with a mild pause during injection to ensure no push back via the tract into the remaining viable tumor. Imiquimod alone was prepared as a suspension by 30 min of sonication at 1 mg mL^−1 in normal saline. Injections for imiquimod alone were done as a total 50 μL 1 mg mL^−1 injections once per day for six total doses. Specifically, Imigel delivered a total of 300 μg in one injection in two 25 μL injection depots within the tumor at the same injection session for only one session. […]

Series [2] concerns CD8+ T cells in CT-26 tumors. Kind of series: Intratumoral flow cytometry, CT-26 model. The conditions noted are these: compared to CPI only. Format: in vivo, mice. The protocol:
Additional groups of 4 mice were injected with CT-26 and treated as above. 6 days post local intervention, mice were euthanized, and ipsilateral and contralateral tumors excised. In all cases of this example, tumor samples were minced and then incubated in a collagenase solution (1 mg mL^−1 in RPMI—1640) for approximately 45 min at 37° C. Tumors were processed into a single cell suspension using a 70 μm cell strainer.
For flow cytometry, using the cells harvested as above, cell viability was assessed by trypan blue staining, and 1×10^6 viable cells were stained for flow cytometry analysis. Cells were washed with PBS and stained with a 1:1000 solution of ZOMBIE Aqua (from […], Biolegend) and incubated on ice for 15 min. […] Cells were resuspended in cell staining buffer, and the samples were analyzed on an Aurora (Cytek Biotechnology). […] Gating for individual markers was determined by fluorescent minus one (FMO) control panels and unstained controls. […]
Background: In flow cytometry, cells or beads pass a laser one at a time.

The conditions of series [3]: cited from earlier work.

As to `O=S(=O)([O-])[O-].[Ba+2]` [barium sulfate], the “effect on release profile of imiquimod from injectable composition” value in the series “In vitro release studies” (phosphate buffer solution at 37 degrees C) is reported as “does not significantly change the release profile of imiquimod”.

As to `CC(C)Cn1cnc2c(N)nc3ccccc3c21` [imiquimod], the solubility at 2 days in series [1] (PLGA1.5k-PEG1.5k-PLGA1.5k micelles (hydrogel solution), aqueous with cosolvent or surfactant or cyclodextrin, thermodynamic from solid, in PLGA1.5k-PEG1.5k-PLGA1.5k micelles, read-out: concentration uniformly solubilized) is about 6000 µg/mL. In addition, in series [1] (encapsulated in micellar structure of PLGA-PEG-PLGA), the “increase of aqueous solubility” value is reported as “approximately 2000 fold”. The 90-day survival is on record as 46.7% in the series with CT-26 tumors (serial imiquimod (6 daily injections) with CPI and cryoablation); 57% in the series with CT-26 tumors (serial imiquimod (6 daily injections) with CPI, no cryoablation). Besides, the “percentage of activated CD8+ T cells (dual CD44+PD1+ among CD8+ T-cells)” value in series [2] is on record as “significant increase”. In addition, the solubility in saline entry in series [3] was “around 0.002 mg mL^−1”.

On to `CCCN(CCC)C(=O)C1=Cc2ccc(-c3ccc(C(=O)N4CCCC4)cc3)cc2N=C(N)C1` [motolimod], for which the encapsulation result in series [1] (motolimod in PLGA-PEG-PLGA injectable composition) is recorded as “around 6 mg/mL”. Besides, in “In vitro release studies” (into PBS, PLGA-PEG-PLGA 1600-1500-1600 and 1500-1500-1500), the “release profile of motolimod” value is reported as “relatively extended”.
